Assay results published in ChEMBL document CHEMBL4422615, “Novel non-xanthine antagonist of the A2B adenosine receptor: From HTS hit to lead structure” (Eur J Med Chem, 2019).
Active and inactive are the calls of the source. No cut-off for these calls is given here.

Tests used:
[1] = molecular target: Adenosine receptor A2a (Homo sapiens, UniProt P29274); experiment: Displacement of [3H]CGS21680 from human A2A adenosine receptor expressed in HEK293 cell membranes after 120 mins by radioligand displacement assay
[2] = MRT in dog at 1 mg/kg, po for 15 mins by HPLC-MS/MS analysis; type: ADME, organism-based, Canis lupus familiaris; conditions: in vivo
[3] = molecular target: T1, Adenosine receptor A3 (Homo sapiens, UniProt P0DMS8); experiment: Antagonist activity at recombinant human A3 adenosine receptor expressed in CHO cells after 3 to 4 hrs by luciferase reporter gene assay; type: cell-based
T1 sequence (P0DMS8 whole entry): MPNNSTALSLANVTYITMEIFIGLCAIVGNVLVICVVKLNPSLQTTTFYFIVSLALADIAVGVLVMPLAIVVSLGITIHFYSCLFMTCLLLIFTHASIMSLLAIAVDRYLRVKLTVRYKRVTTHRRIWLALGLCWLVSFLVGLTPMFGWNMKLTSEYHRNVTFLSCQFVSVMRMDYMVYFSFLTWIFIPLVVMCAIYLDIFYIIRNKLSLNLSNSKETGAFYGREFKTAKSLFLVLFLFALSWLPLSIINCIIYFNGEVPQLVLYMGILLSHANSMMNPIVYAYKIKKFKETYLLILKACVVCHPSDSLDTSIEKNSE

[4] = molecular target: Adenosine receptor A2a (Mus musculus, UniProt Q60613); experiment: Antagonist activity at recombinant mouse A2A adenosine receptor expressed in CHO cells after 3 to 4 hrs by luciferase reporter gene assay; type: cell-based
[5] = Blood clearance in mouse by measuring intrinsic clearance in mouse liver microsomes by MS/MS analysis; type: ADME
[6] = Toxicity in FITC-induced C57BL/6J mouse pulmonary fibrosis model assessed as change in body weight administered as bid dose via gavage pretreated for 45 mins before FITC addition until 72 hrs after FITC application; conditions: in vivo, po
[7] = Dose normalized AUC in dog at 1 mg/kg, po for 15 mins by HPLC-MS/MS analysis; type: ADME, organism-based, Canis lupus familiaris; conditions: in vivo, 0.25 h
[8] = molecular target: T2, Adenosine receptor A1 (Homo sapiens, UniProt P30542); experiment: Antagonist activity at recombinant human A1 adenosine receptor expressed in CHO cells after 3 to 4 hrs by luciferase reporter gene assay; type: cell-based
T2 sequence (P30542 whole entry): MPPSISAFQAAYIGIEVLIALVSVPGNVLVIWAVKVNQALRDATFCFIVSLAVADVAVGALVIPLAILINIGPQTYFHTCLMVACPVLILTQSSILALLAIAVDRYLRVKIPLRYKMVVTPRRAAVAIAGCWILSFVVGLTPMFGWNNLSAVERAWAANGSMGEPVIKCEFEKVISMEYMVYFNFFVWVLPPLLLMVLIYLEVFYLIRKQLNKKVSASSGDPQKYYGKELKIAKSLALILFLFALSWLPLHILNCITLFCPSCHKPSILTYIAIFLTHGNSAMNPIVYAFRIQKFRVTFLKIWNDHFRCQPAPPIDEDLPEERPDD

[9] = Clearance in rat plasma at 0.3 mg/kg, iv administered as bolus dose by HPLC-MS/MS analysis; type: ADME, organism-based
[10] = Clearance in dog blood at 0.3 mg/kg, iv administered as bolus dose by HPLC-MS/MS analysis; type: ADME, organism-based, Canis lupus familiaris
[11] = test system: Mus musculus; experiment: Antifibrotic activity in FITC-induced C57BL/6J mouse pulmonary fibrosis model assessed as reduction in total number of cells in BALF at 100 to 500 mg/kg, bid administered via gavage pretreated for 45 mins before FITC addition until 72 hrs after FITC application; type: functional, organism-based
[12] = Clearance in rat blood at 0.3 mg/kg, iv administered as bolus dose by HPLC-MS/MS analysis; type: ADME, organism-based
[13] = organism: Homo sapiens; experiment: Anti-inflammatory activity in human LL29 cells assessed as reduction in NECA-induced IL6 level after 24 hrs by ELISA; type: functional, cell-based
[14] = Volume of distribution at steady state in mouse at 0.3 mg/kg, iv administered as bolus dose by HPLC-MS/MS analysis; type: ADME, organism-based; conditions: in vivo, read-out: Vdss
[15] = Oral bioavailability in mouse at 1 mg/kg administered as bolus dose by HPLC-MS/MS analysis; type: ADME, organism-based; conditions: in vivo
[16] = test system: Mus musculus; experiment: Antifibrotic activity in FITC-induced C57BL/6J mouse pulmonary fibrosis model assessed as reduction in IL-6 level in lung tissue homogenate at 100 to 500 mg/kg, bid administered via gavage pretreated for 45 mins before FITC addition until 72 hrs after FITC application by ELISA; type: functional, organism-based
[17] = molecular target: T3, Nuclear receptor subfamily 1 group I member 2 (Homo sapiens, UniProt O75469); experiment: Activation of PXR in human HepG2 cells assessed as induction of CYP3A4 expression by luciferase reporter gene assay; type: ADME, cell-based
T3 sequence (O75469 whole entry): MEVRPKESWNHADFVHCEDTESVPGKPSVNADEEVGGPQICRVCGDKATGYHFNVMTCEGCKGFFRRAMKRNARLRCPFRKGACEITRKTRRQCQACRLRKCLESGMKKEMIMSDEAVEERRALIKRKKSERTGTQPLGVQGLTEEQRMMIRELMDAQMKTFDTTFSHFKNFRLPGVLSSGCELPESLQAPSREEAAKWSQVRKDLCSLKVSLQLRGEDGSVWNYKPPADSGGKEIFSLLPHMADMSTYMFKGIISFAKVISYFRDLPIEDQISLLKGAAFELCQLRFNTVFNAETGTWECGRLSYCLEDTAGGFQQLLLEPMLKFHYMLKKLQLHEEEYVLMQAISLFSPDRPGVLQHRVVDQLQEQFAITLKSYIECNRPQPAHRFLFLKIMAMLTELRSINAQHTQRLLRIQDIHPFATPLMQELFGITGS

[18] = Dose normalized AUC in dog at 0.3 mg/kg, iv administered as infusion for 15 mins by HPLC-MS/MS analysis; type: ADME, organism-based, Canis lupus familiaris; conditions: in vivo, 0.25 h
[19] = Intrinsic clearance in rat hepatocytes by MS/MS analysis; type: ADME, cell-based, Hepatocyte
[20] = molecular target: Cytochrome P450 3A4 (Homo sapiens, UniProt P08684); experiment: Time dependent inhibition of human liver microsomes CYP3A4 using midazolam as substrate in presence of NADPH by LC-MS/MS analysis; type: ADME
[21] = Clearance in dog plasma at 0.3 mg/kg, iv administered as bolus dose by HPLC-MS/MS analysis; type: ADME, organism-based, Canis lupus familiaris
[22] = molecular target: Adenosine receptor A2a (Rattus norvegicus, UniProt P30543); experiment: Antagonist activity at recombinant rat A2A adenosine receptor expressed in CHO cells after 3 to 4 hrs by luciferase reporter gene assay; type: cell-based
[23] = molecular target: T2, Adenosine receptor A1; experiment: Displacement of [3H]DPCPX from human A1 adenosine receptor expressed in CHO cell membranes after 60 mins by radioligand displacement assay
[24] = Dose normalized Cmax in rat at 1 mg/kg, po for 15 mins by HPLC-MS/MS analysis; type: ADME, organism-based; conditions: in vivo, 0.25 h
[25] = test system: Mus musculus; experiment: Antifibrotic activity in FITC-induced C57BL/6J mouse pulmonary fibrosis model assessed as reduction in IL-6 level in BALF homogenate at 100 to 500 mg/kg, bid administered via gavage pretreated for 45 mins before FITC addition until 72 hrs after FITC application by ELISA; type: functional, organism-based
[26] = MRT in dog at 0.3 mg/kg, iv administered as infusion for 15 mins by HPLC-MS/MS analysis; type: ADME, organism-based, Canis lupus familiaris; conditions: in vivo

Adenosine receptor A2a (Rattus norvegicus, UniProt P30543), sequence (P30543 whole entry): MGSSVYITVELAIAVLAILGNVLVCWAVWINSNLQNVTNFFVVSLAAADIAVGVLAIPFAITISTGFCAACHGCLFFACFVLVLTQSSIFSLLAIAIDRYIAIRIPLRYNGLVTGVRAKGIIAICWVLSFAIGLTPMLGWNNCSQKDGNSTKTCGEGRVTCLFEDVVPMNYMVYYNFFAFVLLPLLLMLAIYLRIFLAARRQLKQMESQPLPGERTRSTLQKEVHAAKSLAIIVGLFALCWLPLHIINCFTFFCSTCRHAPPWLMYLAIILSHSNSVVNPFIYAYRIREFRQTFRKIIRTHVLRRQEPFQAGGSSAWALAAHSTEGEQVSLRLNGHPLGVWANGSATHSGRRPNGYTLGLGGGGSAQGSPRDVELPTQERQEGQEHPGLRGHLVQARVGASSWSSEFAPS
Cytochrome P450 3A4, sequence (P08684 whole entry): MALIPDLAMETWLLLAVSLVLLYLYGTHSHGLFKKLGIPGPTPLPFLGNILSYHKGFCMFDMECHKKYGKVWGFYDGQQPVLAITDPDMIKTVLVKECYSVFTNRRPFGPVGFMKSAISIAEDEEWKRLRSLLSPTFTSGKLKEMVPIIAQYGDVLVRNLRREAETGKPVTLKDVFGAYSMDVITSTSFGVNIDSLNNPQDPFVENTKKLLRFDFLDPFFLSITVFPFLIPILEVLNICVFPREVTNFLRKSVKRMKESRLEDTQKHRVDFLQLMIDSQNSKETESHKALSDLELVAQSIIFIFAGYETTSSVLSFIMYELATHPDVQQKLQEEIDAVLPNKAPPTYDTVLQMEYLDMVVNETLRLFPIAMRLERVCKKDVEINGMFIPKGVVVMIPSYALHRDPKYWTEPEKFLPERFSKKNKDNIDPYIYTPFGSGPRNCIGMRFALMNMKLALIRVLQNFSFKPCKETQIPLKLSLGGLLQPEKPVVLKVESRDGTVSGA
Adenosine receptor A2a (Homo sapiens, UniProt P29274), sequence (P29274 whole entry): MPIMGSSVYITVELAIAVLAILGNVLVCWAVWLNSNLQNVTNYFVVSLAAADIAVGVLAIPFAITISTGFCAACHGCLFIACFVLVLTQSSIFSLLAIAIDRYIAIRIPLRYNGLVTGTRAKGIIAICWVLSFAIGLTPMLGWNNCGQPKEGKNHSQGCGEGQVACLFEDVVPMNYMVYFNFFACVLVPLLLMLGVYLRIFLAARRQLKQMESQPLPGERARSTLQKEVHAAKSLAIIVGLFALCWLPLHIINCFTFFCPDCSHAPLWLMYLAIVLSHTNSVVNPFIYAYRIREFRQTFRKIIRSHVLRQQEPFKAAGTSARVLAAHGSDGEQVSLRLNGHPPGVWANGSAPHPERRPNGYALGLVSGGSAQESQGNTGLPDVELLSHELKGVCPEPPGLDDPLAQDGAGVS
Adenosine receptor A2a (Mus musculus, UniProt Q60613), sequence (Q60613 whole entry): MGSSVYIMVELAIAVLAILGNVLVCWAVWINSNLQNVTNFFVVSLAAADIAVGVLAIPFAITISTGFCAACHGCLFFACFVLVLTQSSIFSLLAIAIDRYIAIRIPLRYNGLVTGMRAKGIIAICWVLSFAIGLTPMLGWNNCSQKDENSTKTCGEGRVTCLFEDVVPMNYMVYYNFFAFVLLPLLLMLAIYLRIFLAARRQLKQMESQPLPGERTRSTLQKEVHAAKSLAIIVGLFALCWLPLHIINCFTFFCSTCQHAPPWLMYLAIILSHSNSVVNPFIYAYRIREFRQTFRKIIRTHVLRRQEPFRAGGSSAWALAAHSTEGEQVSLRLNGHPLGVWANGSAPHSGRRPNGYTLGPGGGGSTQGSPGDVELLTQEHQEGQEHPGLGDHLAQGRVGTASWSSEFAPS

CCn1c(=O)c2c(C)c(C(=O)N3CCC(O)CC3)sc2n(CCC(F)(F)F)c1=O
Ki [1]: > 1 µM | MRT [2]: 4.4 h | IC50 [3]: > 6.7 µM | IC50 [4]: 0.47 µM | CLhep predicted [5]: < 0.5 L/h/kg | Activity [6]: Non-Toxic | AUC/dose [7]: 2 kg·h/L | IC50 [8]: 1.3 µM | clearance [9]: 1.1 L/h/kg | clearance [10]: 0.44 L/h/kg | Activity [11]: Active | clearance [12]: 1.4 L/h/kg | Activity [13]: Dose-dependent effect | Vd [14]: 0.4 L/kg | bioavailability [15]: 65% | Activity [16]: Active | MEC [17]: 21 ×10⁻⁶ mol/L | AUC/dose [18]: 2.5 kg·h/L | CLhep predicted [19]: 1.4 L/h/kg | TDI [20]: Not Active | clearance [21]: 0.4 L/h/kg | IC50 [22]: 0.75 µM | Ki [23]: > 1 µM | Cmax/dose [24]: 0.33 kg/L | Activity [25]: inactive | MRT [26]: 4.9 h
